Experimental data from patent US8106031B2, “Hydrolytically-resistant boron-containing therapeutics and methods of use” (Anacor Pharmaceuticals, Inc., priority 2006, dated 2012).
Converted amounts (≈) assume the structure as drawn. Read-outs that look alike come from different tables or passages of the source.

How the values were obtained:
Aspergillus fumigatus = assay: MIC against A. fumigatus (NCCLS broth dilution); type: cell-based; conditions: for MIC: Aspergillus fumigatus, read-out: Minimum inhibitory concentration, A. fumigatus
From the text: (§1) To determine the antifungal activity of these compounds we screened for their minimum inhibitory concentrations (MIC) against the major dermatophytes that cause onychomycosis, T. rubrum and T. mentagrophytes, and against the yeasts and molds C. albicans, C. neoformans and A. fumigatus to test for their broad spectrum activity. The antifungal agent ciclopirox, currently in use for the topical treatment of onychomycosis, was used as a reference.
(§2) All MIC testing against Trichophyton rubrum, Trichophyton mentagrophytes, Candida albicans, Cryptococcus neoformans and Aspergillus fumigatus were determined following the National Committee for Clinical Laboratory Standards (NCCLS) guidelines for antimicrobial testing of yeasts and filamentous fungi.^i,ii
(§3) Two-fold serial dilutions of the test compounds were prepared in 96-well plates. […] Pfaller M A, Chaturvedi V, Espinel-Ingroff A, Ghannoum M A, Gosey L L, Odds F C, Rex J H, Rinaldi M G, Sheehan D J, Walsh T J, Warnock D W. NCCLS publication M27-A2—Reference Method for Broth Dilution Antifungal Susceptibility Testing of Yeasts; Approved Standard—Second Edition. […] Pfaller M A, Chaturvedi V, Espinel-Ingroff A, Ghannoum M A, Gosey L L, Odds F C, Rex J H, Rinaldi M G, Sheehan D J, Walsh T J, Warnock D W. NCCLS publication M38-A—Reference Method for Broth Dilution Antifungal Susceptibility Testing of Filamentous Fungi; Approved Standard.

[1] = test system: Trichophyton mentagrophytes; assay: MIC against T. mentagrophytes (NCCLS broth dilution); type: cell-based; conditions: for MIC: Trichophyton mentagrophytes, read-out: Minimum inhibitory concentration, T. mentagrophytes
From the text: as §1, §2, §3

Cryptococcus neoformans = assay: MIC against C. neoformans (NCCLS broth dilution); type: cell-based; conditions: for MIC: Cryptococcus neoformans, read-out: Minimum inhibitory concentration, C. neoformans
From the text: as §1, §2, §3

Candida albicans = assay: MIC against C. albicans (NCCLS broth dilution); type: cell-based; conditions: for MIC: Candida albicans, read-out: Minimum inhibitory concentration, C. albicans
From the text: as §1, §2, §3

Trichophyton rubrum = assay: MIC against T. rubrum (NCCLS broth dilution); type: cell-based; conditions: for MIC: Trichophyton rubrum, read-out: Minimum inhibitory concentration, T. rubrum
From the text: as §1, §2, §3

[2] = Table 1, over 90% reduction of growth, 24-168 h at 35° C.

Row | SMILES | MIC (Aspergillus fumigatus; [2]) [µg/mL] | MIC [1, 2] [µg/mL] | MIC (Cryptococcus neoformans; [2]) [µg/mL] | MIC (Candida albicans; [2]) [µg/mL] | MIC (Trichophyton rubrum; [2]) [µg/mL] | MIC (Aspergillus fumigatus; Table 3, 1-hydroxy series (19)) [µg/mL] | MIC ([1]; Table 3, 1-hydroxy series (19)) [µg/mL] | MIC (Cryptococcus neoformans; Table 3, 1-hydroxy series (19)) [µg/mL] | MIC (Candida albicans; Table 3, 1-hydroxy series (19)) [µg/mL] | MIC (Trichophyton rubrum; Table 3, 1-hydroxy series (19)) [µg/mL] | further results
1 | OB1OCc2cc(F)ccc21 [19b, 1,3-Dihydro-5-fluoro-1-hydroxy-2,1-benzoxaborole] | 0.25 (≈ 1.65 µM) | 1 (≈ 6.58 µM) | 0.25 (≈ 1.65 µM) | 0.5 (≈ 3.29 µM) | 1 (≈ 6.58 µM) | – | – | – | – | – | Minimum inhibitory concentration, A. fumigatus (Aspergillus fumigatus; Table 3, 1-hydroxy series (19)): 0.25 µg/mL (≈ 1.65 µM); Minimum inhibitory concentration, T. mentagrophytes ([1]; Table 3, 1-hydroxy series (19)): 1 µg/mL (≈ 6.58 µM); fold increase in activity against C. neoformans (Cryptococcus neoformans; 19a relative to 9a, 19b relative to 9b): 8 fold; Minimum inhibitory concentration, C. neoformans (Cryptococcus neoformans; Table 3, 1-hydroxy series (19)): 0.25 µg/mL (≈ 1.65 µM); Minimum inhibitory concentration, C. albicans (Candida albicans; Table 3, 1-hydroxy series (19)): 0.5 µg/mL (≈ 3.29 µM); Minimum inhibitory concentration, T. rubrum (Trichophyton rubrum; Table 3, 1-hydroxy series (19)): 1 µg/mL (≈ 6.58 µM)
2 | OB1OCc2cc(Cl)ccc21 [19d, 5-Chloro-1,3-dihydro-1-hydroxy-2,1-benzoxaborole] | – | – | – | – | – | 1 (≈ 5.94 µM) | 2 (≈ 11.9 µM) | 2 (≈ 11.9 µM) | 1 (≈ 5.94 µM) | 1 (≈ 5.94 µM) | –
3 | Cc1ccc2c(c1)COB2O [19e, 1,3-Dihydro-1-hydroxy-5-methyl-2,1-benzoxaborole] | – | – | – | – | – | 2 (≈ 13.5 µM) | 4 (≈ 27 µM) | 8 (≈ 54.1 µM) | 2 (≈ 13.5 µM) | 8 (≈ 54.1 µM) | –
4 | N#Cc1ccc2c(c1)COB2O [19f, 5-Cyano-1,3-dihydro-1-hydroxy-2,1-benzoxaborolane] | – | – | – | – | – | – | – | – | – | – | Minimum inhibitory concentration, A. fumigatus (Aspergillus fumigatus; Table 3, 1-hydroxy series (19)): 8 µg/mL (≈ 50.3 µM); Minimum inhibitory concentration, T. mentagrophytes ([1]; Table 3, 1-hydroxy series (19)): 8 µg/mL (≈ 50.3 µM); Minimum inhibitory concentration, C. neoformans (Cryptococcus neoformans; Table 3, 1-hydroxy series (19)): 16 µg/mL (≈ 101 µM); Minimum inhibitory concentration, C. albicans (Candida albicans; Table 3, 1-hydroxy series (19)): 16 µg/mL (≈ 101 µM); Minimum inhibitory concentration, T. rubrum (Trichophyton rubrum; Table 3, 1-hydroxy series (19)): 8 µg/mL (≈ 50.3 µM)
5 | OCc1ccc2c(c1)COB2O [19h, 1,3-Dihydro-1-hydroxy-5-hydroxymethyl-2,1-benzoxaborole] | – | – | – | – | – | > 64 | 32 (≈ 195 µM) | > 64 | > 64 | 64 (≈ 390 µM) | –
6 | OB1OCc2cc(F)c(F)cc21 [19k, 5,6-Difluoro-1,3-dihydro-1-hydroxy-2,1-benzoxaborolane] | – | – | – | – | – | – | – | – | – | – | Minimum inhibitory concentration, A. fumigatus (Aspergillus fumigatus; Table 3, 1-hydroxy series (19)): 2 µg/mL (≈ 11.8 µM); Minimum inhibitory concentration, T. mentagrophytes ([1]; Table 3, 1-hydroxy series (19)): 4 µg/mL (≈ 23.5 µM); Minimum inhibitory concentration, C. neoformans (Cryptococcus neoformans; Table 3, 1-hydroxy series (19)): 2 µg/mL (≈ 11.8 µM); Minimum inhibitory concentration, C. albicans (Candida albicans; Table 3, 1-hydroxy series (19)): 4 µg/mL (≈ 23.5 µM); Minimum inhibitory concentration, T. rubrum (Trichophyton rubrum; Table 3, 1-hydroxy series (19)): 4 µg/mL (≈ 23.5 µM)
7 | OB1OCc2c(F)cccc21 [19l, 1,3-Dihydro-4-fluoro-1-hydroxy-2,1-benzoxaborole] | – | – | – | – | – | 32 (≈ 211 µM) | 16 (≈ 105 µM) | 32 (≈ 211 µM) | 64 (≈ 421 µM) | 16 (≈ 105 µM) | –
8 | OB1OCc2ccc(F)cc21 [19m, 1,3-Dihydro-6-fluoro-1-hydroxy-2,1-benzoxaborole] | – | – | – | – | – | 8 (≈ 52.7 µM) | 32 (≈ 211 µM) | 32 (≈ 211 µM) | 16 (≈ 105 µM) | 16 (≈ 105 µM) | –
9 | OB1OCc2cccc(F)c21 [19n, 1,3-Dihydro-7-fluoro-1-hydroxy-2,1-benzoxaborolane] | – | – | – | – | – | 4 (≈ 26.3 µM) | 16 (≈ 105 µM) | 32 (≈ 211 µM) | 32 (≈ 211 µM) | 16 (≈ 105 µM) | –
10 | C=CB1OCc2cc(F)ccc21 [compound 11, 1,3-Dihydro-5-fluoro-1-vinyl-2,1-benzoxaborole] | 2 (≈ 12.3 µM) | 2 (≈ 12.3 µM) | 4 (≈ 24.7 µM) | 1 (≈ 6.17 µM) | 4 (≈ 24.7 µM) | – | – | – | – | – | –
11 | Fc1ccc2c(c1)COB2c1ccoc1 [compound 12, 1,3-Dihydro-5-fluoro-1-(furan-3-yl)-2,1-benzoxaborole] | 4 (≈ 19.8 µM) | 4 (≈ 19.8 µM) | 4 (≈ 19.8 µM) | 4 (≈ 19.8 µM) | 4 (≈ 19.8 µM) | – | – | – | – | – | –
12 | Fc1ccc2c(c1)COB2c1ccsc1 [compound 13, 1,3-Dihydro-5-fluoro-1-(thiophen-3-yl)-2,1-benzoxaborole] | 1 (≈ 4.59 µM) | 4 (≈ 18.3 µM) | 1 (≈ 4.59 µM) | 1 (≈ 4.59 µM) | 1 (≈ 4.59 µM) | – | – | – | – | – | melting point: 33 to 35 °C
13 | Cc1cscc1B1OCc2cc(F)ccc21 [compound 14, 1,3-Dihydro-5-fluoro-1-(4-methylthiophen-3-yl)-2,1-benzoxaborole] | 1 (≈ 4.31 µM) | 2 (≈ 8.62 µM) | 1 (≈ 4.31 µM) | 1 (≈ 4.31 µM) | 1 (≈ 4.31 µM) | – | – | – | – | – | melting point: 51 to 53 °C
